{"source": "paper PMC4503722", "about": "“Novel Phenotypic Outcomes Identified for a Public Collection of Approved Drugs from a Publicly Accessible Panel of Assays” (PLoS ONE, 2015)", "key": {"[1]": {"tested_on": "endothelial tube formation in co-cultures of ECFCs and ADSCs treated with VEGF", "assay": "cells", "assay_type": "cell-based, human", "settings": "for IC50: read-out: VEGF_ADSC\\ECFC Angio CD31 TubeArea summarized IC50"}, "[2]": {"tested_on": "ECFC/ADSC co-culture cell nuclei number", "settings": "for IC50: read-out: VEGF_ADSC\\ECFC Angio Hoechst NucArea summarized IC50"}}, "note": "Where a SMILES comes first, the peptide text is derived from it. Bridges are numbered along the chain shown (N, C = ends). [ ]: non-standard residue; d: D form. hArg = N=C(N)NCCCC[C@H](N)C(=O)O; Mpa = O=C(O)CCS"}
{"compound": "COC1=C(OC)C(=O)C(CCCCCCCCCCO)=C(C)C1=O", "note": "[NCGC00160514-02]", "values": [{"measurement": "VEGF_ADSC\\ECFC Angio CD31 TubeArea IC50/EC50", "setting": "[1]", "result": "> 10", "unit": "µM"}, {"measurement": "VEGF_ADSC\\ECFC Angio Hoechst NucArea IC50/EC50", "setting": "[2]", "result": "> 10", "unit": "µM"}]}
{"compound": "O=[N+]([O-])c1cc(I)c(O)c(I)c1", "note": "[NCGC00166241-02]", "values": [{"measurement": "IC50", "setting": "[1]", "result": "> 10", "unit": "µM"}, {"measurement": "IC50", "setting": "[2]", "result": "> 10", "unit": "µM"}]}
{"compound": "Cc1c(C)c2c(c(C)c1OC(=O)CCC(=O)O)CC[C@@](C)(CCC[C@H](C)CCC[C@H](C)CCCC(C)C)O2", "note": "[NCGC00167561-03]", "values": [{"measurement": "IC50", "setting": "[1]", "result": "> 10", "unit": "µM"}, {"measurement": "IC50", "setting": "[2]", "result": "> 10", "unit": "µM"}]}
{"compound": "COc1ccccc1OCCNCC(O)COc1cccc2[nH]c3ccccc3c12", "note": "(centres unmarked) [NCGC00167832-06]", "values": [{"measurement": "VEGF_ADSC\\ECFC Angio CD31 TubeArea IC50/EC50", "setting": "[1]", "result": "> 10", "unit": "µM"}, {"measurement": "VEGF_ADSC\\ECFC Angio Hoechst NucArea IC50/EC50", "setting": "[2]", "result": "> 10", "unit": "µM"}]}
{"compound": "COC(=O)C1=C(C)NC(C)=C(C(=O)OCCN2CCN(C(c3ccccc3)c3ccccc3)CC2)C1c1cccc([N+](=O)[O-])c1", "note": "(centres unmarked) [NCGC00167493-04]", "values": [{"measurement": "IC50/EC50, VEGF_ADSC\\ECFC Angio CD31 TubeArea (assay number 2)", "setting": "[1]", "result": "> 10", "unit": "µM"}, {"measurement": "IC50/EC50, VEGF_ADSC\\ECFC Angio Hoechst NucArea (assay number 3)", "setting": "[2]", "result": "> 10", "unit": "µM"}]}
{"compound": "NC(=O)[C@@H]1CSSCCC(=O)N[C@@H](CCCCN=C(N)N)C(=O)NCC(=O)N[C@@H](CC(=O)O)C(=O)N[C@@H](Cc2c[nH]c3ccccc23)C(=O)N2CCC[C@H]2C(=O)N1", "note": "[NCGC00263524-01] ([Mpa][hArg]GDWPC-NH2; disulfide 1-7)", "values": [{"measurement": "VEGF_ADSC\\ECFC Angio CD31 TubeArea IC50/EC50", "setting": "[1]", "result": "> 10", "unit": "µM"}, {"measurement": "VEGF_ADSC\\ECFC Angio Hoechst NucArea IC50/EC50", "setting": "[2]", "result": "> 10", "unit": "µM"}]}
{"compound": "NC(=O)c1cccnc1", "note": "[NCGC00093354-05]", "values": [{"measurement": "IC50", "setting": "[1]", "result": "> 10", "unit": "µM"}, {"measurement": "IC50", "setting": "[2]", "result": "> 10", "unit": "µM"}]}
{"compound": "Cc1onc(-c2c(Cl)cccc2Cl)c1C(=O)Cl", "note": "[NCGC00253649-01]", "values": [{"measurement": "VEGF_ADSC\\ECFC Angio CD31 TubeArea IC50/EC50", "setting": "[1]", "result": "> 10", "unit": "µM"}, {"measurement": "VEGF_ADSC\\ECFC Angio Hoechst NucArea IC50/EC50", "setting": "[2]", "result": "> 10", "unit": "µM"}]}
{"compound": "O=C1NCN(c2ccccc2)C12CCN(CCCC(c1ccc(F)cc1)c1ccc(F)cc1)CC2", "note": "[NCGC00015424-11]", "values": [{"measurement": "IC50/EC50, VEGF_ADSC\\ECFC Angio CD31 TubeArea (assay number 2)", "setting": "[1]", "result": "> 10", "unit": "µM"}, {"measurement": "IC50/EC50, VEGF_ADSC\\ECFC Angio Hoechst NucArea (assay number 3)", "setting": "[2]", "result": 8.086, "unit": "µM"}]}
{"compound": "CC12CCC(CC1)C(C)(C)O2", "note": "[NCGC00091666-04]", "values": [{"measurement": "IC50", "setting": "[1]", "result": "> 10", "unit": "µM"}, {"measurement": "IC50", "setting": "[2]", "result": "> 10", "unit": "µM"}]}
{"compound": "CCN1CCC[C@H]1CNC(=O)c1c(OC)ccc(Br)c1OC", "note": "[NCGC00024870-06]", "values": [{"measurement": "VEGF_ADSC\\ECFC Angio CD31 TubeArea IC50/EC50", "setting": "[1]", "result": "> 10", "unit": "µM"}, {"measurement": "VEGF_ADSC\\ECFC Angio Hoechst NucArea IC50/EC50", "setting": "[2]", "result": "> 10", "unit": "µM"}]}
{"compound": "C#C[C@]1(O)CC[C@H]2[C@@H]3CCc4cc(O)ccc4[C@H]3CC[C@@]21C", "note": "[NCGC00091533-10]", "values": [{"measurement": "IC50", "setting": "[1]", "result": "> 10", "unit": "µM"}, {"measurement": "IC50", "setting": "[2]", "result": "> 10", "unit": "µM"}]}
{"compound": "COc1ccccc1N1CCN(CC(O)COc2cc(OC)c(OC)c(OC)c2)CC1", "note": "(centres unmarked) [NCGC00253761-01]", "values": [{"measurement": "VEGF_ADSC\\ECFC Angio CD31 TubeArea IC50/EC50", "setting": "[1]", "result": "> 10", "unit": "µM"}, {"measurement": "VEGF_ADSC\\ECFC Angio Hoechst NucArea IC50/EC50", "setting": "[2]", "result": "> 10", "unit": "µM"}]}
{"compound": "Nc1ccc(O)cc1", "note": "[NCGC00090816-05]", "values": [{"measurement": "IC50/EC50, VEGF_ADSC\\ECFC Angio CD31 TubeArea (assay number 2)", "setting": "[1]", "result": "> 10", "unit": "µM"}, {"measurement": "IC50/EC50, VEGF_ADSC\\ECFC Angio Hoechst NucArea (assay number 3)", "setting": "[2]", "result": "> 10", "unit": "µM"}]}
{"compound": "OCCN1CCN(CCCN2c3ccccc3Sc3ccc(C(F)(F)F)cc32)CC1", "note": "[NCGC00015436-11]", "values": [{"measurement": "VEGF_ADSC\\ECFC Angio CD31 TubeArea IC50/EC50", "setting": "[1]", "result": "> 10", "unit": "µM"}, {"measurement": "VEGF_ADSC\\ECFC Angio Hoechst NucArea IC50/EC50", "setting": "[2]", "result": "> 10", "unit": "µM"}]}
{"compound": "O=C1OC(OC(=O)c2cccnc2Nc2cccc(C(F)(F)F)c2)c2ccccc21", "note": "(centres unmarked) [NCGC00167754-02]", "values": [{"measurement": "VEGF_ADSC\\ECFC Angio CD31 TubeArea IC50/EC50", "setting": "[1]", "result": "> 10", "unit": "µM"}, {"measurement": "VEGF_ADSC\\ECFC Angio Hoechst NucArea IC50/EC50", "setting": "[2]", "result": "> 10", "unit": "µM"}]}
{"compound": "C#C[C@]1(OC(C)=O)CC[C@H]2[C@@H]3CCC4=CC(=NO)CC[C@@H]4[C@H]3CC[C@@]21CC", "note": "(mixture of isomers) [NCGC00344561-01]", "values": [{"measurement": "VEGF_ADSC\\ECFC Angio CD31 TubeArea IC50/EC50", "setting": "[1]", "result": "> 10", "unit": "µM"}, {"measurement": "VEGF_ADSC\\ECFC Angio Hoechst NucArea IC50/EC50", "setting": "[2]", "result": "> 10", "unit": "µM"}]}
{"compound": "Oc1ccc2[nH]cc(CCCCN3CC=C(c4ccccc4)CC3)c2c1", "note": "[NCGC00025216-03]", "values": [{"measurement": "VEGF_ADSC\\ECFC Angio CD31 TubeArea IC50/EC50", "setting": "[1]", "result": 4.0367, "unit": "µM"}, {"measurement": "VEGF_ADSC\\ECFC Angio Hoechst NucArea IC50/EC50", "setting": "[2]", "result": "> 10", "unit": "µM"}]}
{"compound": "OC[C@@H](O)[C@@H](O)[C@H](O)[C@@H](O)CO", "note": "[NCGC00164353-05]", "values": [{"measurement": "VEGF_ADSC\\ECFC Angio CD31 TubeArea IC50/EC50", "setting": "[1]", "result": "> 10", "unit": "µM"}, {"measurement": "VEGF_ADSC\\ECFC Angio Hoechst NucArea IC50/EC50", "setting": "[2]", "result": "> 10", "unit": "µM"}]}
{"compound": "CCN[C@@H](C)Cc1cccc(C(F)(F)F)c1", "note": "[NCGC00247710-02]", "values": [{"measurement": "VEGF_ADSC\\ECFC Angio CD31 TubeArea IC50/EC50", "setting": "[1]", "result": "> 10", "unit": "µM"}, {"measurement": "VEGF_ADSC\\ECFC Angio Hoechst NucArea IC50/EC50", "setting": "[2]", "result": "> 10", "unit": "µM"}]}
{"compound": "COc1cc(/C=C2\\CCC/C(=C\\c3ccc(O)c(OC)c3)C2=O)ccc1O", "note": "[NCGC00164486-04]", "values": [{"measurement": "IC50", "setting": "[1]", "result": "> 10", "unit": "µM"}, {"measurement": "IC50", "setting": "[2]", "result": 6.98, "unit": "µM"}]}
{"compound": "CC(=O)c1ccc(OCC(=O)N2CCCCC2)cc1", "note": "[NCGC00183022-01]", "values": [{"measurement": "VEGF_ADSC\\ECFC Angio CD31 TubeArea IC50/EC50", "setting": "[1]", "result": "> 10", "unit": "µM"}, {"measurement": "VEGF_ADSC\\ECFC Angio Hoechst NucArea IC50/EC50", "setting": "[2]", "result": "> 10", "unit": "µM"}]}
{"compound": "Cc1[nH]cnc1C[C@H]1CCc2c(C)c3ccccc3n2C1=O", "note": "[NCGC00249415-01]", "values": [{"measurement": "VEGF_ADSC\\ECFC Angio CD31 TubeArea IC50/EC50", "setting": "[1]", "result": "> 10", "unit": "µM"}, {"measurement": "VEGF_ADSC\\ECFC Angio Hoechst NucArea IC50/EC50", "setting": "[2]", "result": "> 10", "unit": "µM"}]}
{"compound": "S=C=Nc1ccc(N=C=S)cc1", "note": "[NCGC00166077-02]", "values": [{"measurement": "IC50/EC50, VEGF_ADSC\\ECFC Angio CD31 TubeArea (assay number 2)", "setting": "[1]", "result": "> 10", "unit": "µM"}, {"measurement": "IC50/EC50, VEGF_ADSC\\ECFC Angio Hoechst NucArea (assay number 3)", "setting": "[2]", "result": "> 10", "unit": "µM"}]}
{"compound": "CCOC(=O)[C@H](CCc1ccccc1)N[C@@H](C)C(=O)N1Cc2cc(OC)c(OC)cc2C[C@H]1C(=O)O.Cl", "note": "[NCGC00263546-01]", "values": [{"measurement": "VEGF_ADSC\\ECFC Angio CD31 TubeArea IC50/EC50", "setting": "[1]", "result": "> 10", "unit": "µM"}, {"measurement": "VEGF_ADSC\\ECFC Angio Hoechst NucArea IC50/EC50", "setting": "[2]", "result": "> 10", "unit": "µM"}]}
